Measured values as given in patent US9980943B2, “Methods of treating muscular dystrophy” (BOARD OF REGENTS OF THE NEVADA SYSTEM OF HIGHER EDUCATION, …, priority 2013, dated 2018).

Assays:
Format in all cases: cell-based, mouse
[1] = system: α7 integrin (LacZ reporter in α7βgal+/− myoblasts); assay: Myoblast α7+/LacZ integrin FDG assay (Burkin assay in myoblasts, 96-well); conditions: α7+/LacZ myoblasts, 96-well
[2] = system: β-galactosidase in CMV-LacZ C2C12 myotubes; assay: CMV-LacZ secondary screen in C2C12 myotubes (β-Gal stabilizing assay); conditions: C2C12 CMV-LacZ myotubes, fold relative to DMSO
Method in brief: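 First, C2C12 myoblasts were transfected with a linearized CMV-LACZ vector and clonal lines selected by FDG β-gal assay. Then cells were exposed to compounds at 0.5, 1, 5, 10, 20 and 40 μM in 96-well format, two replicates each, and β-gal measured.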

[3] = system: β-galactosidase in CMV-LacZ C2C12 myoblasts; assay: CMV-LacZ secondary screen in C2C12 myoblasts (β-Gal stabilizing assay); conditions: CMV-LacZ C2C12 myoblasts
Method in brief: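 Stable CMV-LacZ C2C12 clone; six-point curve 0.5–40 μM; duplicates.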

[4] = system: α7 integrin (LacZ reporter in α7+/LacZ myotubes); assay: Myotube α7 integrin FDG assay (Burkin assay in myotubes, 96-well); conditions: myotubes

| Structure (SMILES) | Burkin Assay in Myoblasts, signal relative to DMSO ([1]; 0.5 uM) | Burkin Assay in Myoblasts, signal relative to DMSO ([1]; 1 uM) | Burkin Assay in Myoblasts, signal relative to DMSO ([1]; 5 uM) | Burkin Assay in Myoblasts, signal relative to DMSO ([1]; 10 uM) | Burkin Assay in Myoblasts, signal relative to DMSO ([1]; 20 uM) | Burkin Assay in Myoblasts, signal relative to DMSO ([1]; 40 uM) | CMV-LACZ in Myotubes, signal relative to DMSO ([2]; 0.5 uM) | CMV-LACZ in Myotubes, signal relative to DMSO ([2]; 1 uM) | CMV-LACZ in Myotubes, signal relative to DMSO ([2]; 5 uM) | CMV-LACZ in Myotubes, signal relative to DMSO ([2]; 10 uM) | CMV-LACZ in Myotubes, signal relative to DMSO ([2]; 20 uM) | CMV-LACZ in Myotubes, signal relative to DMSO ([2]; 40 uM) | CMV-LACZ in Myoblasts (β-galactosidase activity relative to DMSO) ([3]; 0.5 uM) | CMV-LACZ in Myoblasts (β-galactosidase activity relative to DMSO) ([3]; 1 uM) | CMV-LACZ in Myoblasts (β-galactosidase activity relative to DMSO) ([3]; 5 uM) | CMV-LACZ in Myoblasts (β-galactosidase activity relative to DMSO) ([3]; 10 uM) | CMV-LACZ in Myoblasts (β-galactosidase activity relative to DMSO) ([3]; 20 uM) | CMV-LACZ in Myoblasts (β-galactosidase activity relative to DMSO) ([3]; 40 uM) | Burkin Assay in Myotubes, α7 integrin LacZ reporter signal relative to DMSO ([4]; 0.5 uM) | Burkin Assay in Myotubes, α7 integrin LacZ reporter signal relative to DMSO ([4]; 1 uM) | other results |
| --- | --- | --- | --- | --- | --- | --- | --- | --- | --- | --- | --- | --- | --- | --- | --- | --- | --- | --- | --- | --- | --- |
| COc1cccc(CN2CCN(Cc3ccco3)CC2)c1.O=C(O)C(=O)O [MLS001211139-01] | 1.2392 | 1.136 | 1.065 | 0.9683 | 1.218 | 1.216 | 0.9281 | 0.8948 | 1.1755 | 1.0196 | 0.8259 | 1.0224 | 0.9691 | 0.7347 | 0.9500 | 0.8608 | 1.0659 | 0.8744 | 1.167 | 1.288 | Burkin Assay in Myotubes, α7 integrin LacZ reporter signal relative to DMSO ([4]; 5 uM): 1.003; Burkin Assay in Myotubes, α7 integrin LacZ reporter signal relative to DMSO ([4]; 10 uM): 0.9425; Burkin Assay in Myotubes, α7 integrin LacZ reporter signal relative to DMSO ([4]; 20 uM): 0.8283; Burkin Assay in Myotubes, α7 integrin LacZ reporter signal relative to DMSO ([4]; 40 uM): 0.7547 |
| CC(O)CNc1nc2c(c(=O)n(Cc3ccc(Br)cc3)c(=O)n2C)n1C (stereo not drawn) [MLS001212319-01] | 1.05 | 1.026 | 0.9412 | 0.8826 | 0.8529 | 0.782 | 1.1524 | 0.8152 | 0.9525 | 0.9253 | 0.9965 | 1.0706 | 0.9129 | 1.2040 | 1.0840 | 0.8600 | 1.2056 | 1.0259 | 1.134 | 1.139 | Burkin Assay in Myotubes, α7 integrin LacZ reporter signal relative to DMSO ([4]; 5 uM): 0.9476; Burkin Assay in Myotubes, α7 integrin LacZ reporter signal relative to DMSO ([4]; 10 uM): 0.9201; Burkin Assay in Myotubes, α7 integrin LacZ reporter signal relative to DMSO ([4]; 20 uM): 0.7396; Burkin Assay in Myotubes, α7 integrin LacZ reporter signal relative to DMSO ([4]; 40 uM): 0.631 |
| COc1ccc(OC)c(NC(=O)CN2CCC(NC(=O)c3ccccc3C)CC2)c1 [MLS001212882-01] | 1.0132 | 1.07 | 1.049 | 0.9069 | 1.068 | 1.048 | 1.0238 | 0.8705 | 1.0963 | 1.1133 | 1.1471 | 1.3024 | 1.1409 | 1.1291 | 0.9792 | 1.0086 | 1.3230 | 1.0326 | 0.9814 | 1.023 | Burkin Assay in Myotubes, α7 integrin LacZ reporter signal relative to DMSO ([4]; 5 uM): 0.9072; Burkin Assay in Myotubes, α7 integrin LacZ reporter signal relative to DMSO ([4]; 10 uM): 0.8877; Burkin Assay in Myotubes, α7 integrin LacZ reporter signal relative to DMSO ([4]; 20 uM): 0.8421; Burkin Assay in Myotubes, α7 integrin LacZ reporter signal relative to DMSO ([4]; 40 uM): 0.9107 |
